This is an account of results in patent publication US11524962B2, “Substituted pyrrolo[2,3-d]pyrimidines as inhibitors of protein arginine methyl transferase 5 (PRMT5)” (PRELUDE THERAPEUTICS, INCORPORATED, priority 2017, dated 2022).

Where two headings read alike, the source gives them in different places.

One data set addresses PRMT5/MEP50 complex (Homo sapiens (Human), UniProt O14744). Description: Flash plate assay. The data set is classed as biochemical. In outline:
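Inhibition of the human PRMT5/MEP50 complex was measured radiometrically. Compounds in 3-fold DMSO dilutions were preincubated 20 minutes at 37° C with 2.5 nM enzyme and 300 nM AcH4-23 histone H4 peptide in 30 μl assay buffer. S-[3H-methyl]-adenosyl-L-methionine (1 μM) was then added for 30 minutes at 37° C. Reactions were stopped with 8M Guanidine HCl, captured on streptavidin SPA beads and scintillation counted. IC50 values came from 4-parameter fits.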

The subject of another data set is Granta-519 cells. Description: Cell proliferation assay in Granta-519 cells. Type of data set: cell-based. To be noted: Homo sapiens, 240 h; Granta-519, day 10; read-out: Prolif_Granta IC50. On the procedure: Granta-519 cells were maintained in PRMI 1640 (Corning Cellgro, Catalog #: 10-040-CV) medium supplemented with 10% v/v FBS (GE Healthcare, Catalog #: SH30910.03). Compounds were dissolved in DMSO to make 10 mM stocks and stored at −20° C. Nine-point, 3-fold serial dilutions were made with DMSO with top concentration at 1 mM (working stocks).
On day of experiment, compound working stocks were further diluted at 1:50 with fresh medium in 96 well plate, and 10 μL of diluted drugs were added to a new 96 well plate for proliferation assay. Cells growing at exponential phase were spun down at 1500 rpm for 4 min and resuspend in fresh medium to reach a density of 0.5×10^6 cells/ml. 200 ul of cells were added to 96 well plate containing diluted drugs and incubated for 3 days. DMSO was used a vehicle control.
On day 3, 10 μL of Cell Counting Kit-8 (CCK-8, Jojindo, CK04-13) solution was added to a new 96 well plate. Cells incubated with drugs for 3 days were resuspended by pipetting up and down, and 100 μL of cells were transferred to 96 well plate containing CCK-8 reagent to measure viable cells. Plates were incubated in CO2 incubator for 2 hours and OD450 values were measured with a microplate reader (iMark microplate reader, Bio-Rad).
For re-plating, compound working stocks were diluted at 1:50 with fresh medium and 10 μL of diluted drugs were added to a new 96 well plate. Cells from Day 3 plate (50 ul) were added to 96 well plate containing fresh drug and additional 150 μL of fresh medium was added to reach 200 μL volume. Plate was returned to CO2 incubator and incubated for 3 more days. Viable cells measurement and re-plating were repeated on day 6, and the final viable cells measurement was taken on day 10.
Percentage of viable cells, relative to DMSO vehicle control, were calculated and plotted in Graphpad Prism ([Inhibitor]vs. normalized response−Variable slope) to determine proliferation IC50 values on day 10.
One day before experiment, Granta-519 cells were passaged to a density of 0.5×10^6 cells/ml. U-87 MG cells were trypsinized and 2,000 cells were seeded into 96-well plates and allow to grow overnight. On the day of experiment (day 0), Granta-519 Cells were spun down at 1,500 rpm for 4 min, resuspended in fresh medium to 0.5×10^6 cells/ml and 190 ul of cells were added to 96 well plates. For U-87 MG cells, old medium was removed and replaced with 190 uL fresh medium. Compound working stocks were first diluted at 1:50 with fresh medium in 96 well plate and 10 μL of diluted drugs were added to 96 well plates containing cells and incubated for 3 days. DMSO was used a vehicle control.
One day 3, 50 uL of Granta-519 cells were transferred to a new 96-well plate and 140 uL fresh medium was added. For U-87 MG cells, old medium was removed and replaced with 190 uL fresh medium. Compound working stocks were freshly diluted at 1:50 with medium and 10 μL of diluted drugs were added to cells and grow for 3 additional days. The same process was repeated on day 6. Cells were allowed to grow for additional 4 days.
On day 10, 100 uL Granta-519 cells were transferred to a new 96 well plate and 10 μL of Cell Counting Kit-8 (CCK-8, Jojindo, CK04-13) solution was added. For U-87 MG cells, old medium was removed and replaced with 100 uL fresh medium and 10 uL CCK-8 solution was added. Plates were incubated in CO2 incubator for 2 hours (Granta-519 cells) or 30 min (U-87 MG cells) and OD450 values were measured with a microplate reader (iMark microplate reader, Bio-Rad). Percentage of viable cells, relative to DMSO vehicle control, were calculated and plotted in Graphpad Prism ([Inhibitor]vs. normalized response−Variable slope) to determine proliferation IC50 values on day 10.
These cell proliferation procedures produced the data in Table 7.

A short description of data set [1]: In vivo pharmacokinetic study in rat. To be noted: for clearance / half-life / Vd / bioavailability: Sprague-Dawley (SD), blood; for clearance / half-life / Vd: iv, i.v. 1 mg/kg; for Vd: read-out: Vss; for bioavailability: po; for bioavailability / dose normalized AUC: p.o. 3 mg/kg. On the procedure:
In a rat (SD, male, non-fasted) non-crossover cassette (n=2) PK study, Example 1 was dosed at 0.5 mg/kg (DMA: […]=5:95, solution) with another compound via i.v. administration (N=3) and 2 mg/kg (0.5% o Na CMC+0.50% Tween80, suspension) with another compound via oral gauge (p.o.) (N=3).
In a rat (SD, male and female, non-fasted) non-crossover cassette (n=4) PK study, Example 6 was dosed at 0.2 mg/kg (DMA: […]=5:95, solution) with other 3 compounds via i.v. administration (N=2 per sex) and 2 mg/kg (0.5% o Na CMC+0.50% Tween80, suspension) with other 3 compounds via oral gauge (p.o.) (N=2 per sex).
In a rat (SD, male and female, non-fasted) non-crossover PK study, Example 11 was dosed at 1 mg/kg (DMA: 20% HPBCD=5:95, solution) via i.v. administration (N=3 per sex) and 3 mg/kg (0.5% Na CMC+0.5% Tween80, suspension) via oral gauge (p.o.) (N=3 per sex).

Chain of PRMT5/MEP50 complex (O14744 whole entry): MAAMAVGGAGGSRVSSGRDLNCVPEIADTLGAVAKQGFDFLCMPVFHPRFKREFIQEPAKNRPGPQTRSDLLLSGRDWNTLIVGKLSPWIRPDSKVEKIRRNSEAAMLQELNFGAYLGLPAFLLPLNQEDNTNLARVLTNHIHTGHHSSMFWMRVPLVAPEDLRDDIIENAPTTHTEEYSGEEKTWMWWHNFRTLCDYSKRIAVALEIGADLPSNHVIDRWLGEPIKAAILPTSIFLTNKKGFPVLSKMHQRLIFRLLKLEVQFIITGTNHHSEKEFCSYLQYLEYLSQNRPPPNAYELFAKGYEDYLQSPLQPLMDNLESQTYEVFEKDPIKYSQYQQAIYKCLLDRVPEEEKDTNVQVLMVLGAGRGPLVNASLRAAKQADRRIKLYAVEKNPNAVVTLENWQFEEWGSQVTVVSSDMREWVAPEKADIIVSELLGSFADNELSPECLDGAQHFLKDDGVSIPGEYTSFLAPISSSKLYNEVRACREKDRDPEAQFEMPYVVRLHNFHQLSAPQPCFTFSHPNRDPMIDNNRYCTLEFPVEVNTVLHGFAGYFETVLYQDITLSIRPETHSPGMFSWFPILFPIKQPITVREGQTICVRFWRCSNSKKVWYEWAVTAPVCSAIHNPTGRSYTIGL
Chain of PRMT5/MEP50 complex (Q9BQA1 whole entry partner): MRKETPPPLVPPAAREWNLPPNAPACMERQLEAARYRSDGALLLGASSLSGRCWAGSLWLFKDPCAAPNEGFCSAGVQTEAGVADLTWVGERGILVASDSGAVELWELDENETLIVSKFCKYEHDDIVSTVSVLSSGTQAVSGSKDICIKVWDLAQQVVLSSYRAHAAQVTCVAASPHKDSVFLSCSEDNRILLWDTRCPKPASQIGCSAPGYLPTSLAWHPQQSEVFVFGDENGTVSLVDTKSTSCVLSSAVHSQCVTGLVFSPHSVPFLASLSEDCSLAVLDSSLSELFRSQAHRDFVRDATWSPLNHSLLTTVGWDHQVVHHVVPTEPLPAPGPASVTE

As for `Cc1ncnc2c1ccn2[C@@H]1O[C@H]([C@H](O)c2ccc3c(c2)CC3)[C@@H](O)[C@H]1O` [Example 11, (2R,3S,4R,5R)-2-((R)-bicyclo[4.2.0]octa-1(6),2,4-trien-3-yl(hydroxy)methyl)-5-(4-methyl-7H-pyrrolo[2,3-d]pyrimidin-7-yl)tetrahydrofuran-3,4-diol], on PRMT5/MEP50 complex (initial testing, read-out: IC50 (flash plate)), the IC50 was 5.9 nM. In addition, the IC50 at PRMT5/MEP50 complex (read-out: Flash Plate IC50) was determined as 6.8 nM. The IC50 with Granta-519 cells is 92 nM. Further, in data set [1] (rat SD female), the clearance worked out at 37.2 mL/min/kg, the half-life was 1.84 h, the Vd came to 2.71 L/kg and the bioavailability was found to be 97%. In data set [1] (rat SD female), the “dose normalized AUC” value is 434 ng·kg·h/mL/mg. Besides, in data set [1] (rat SD male), the clearance came out at 77.5 mL/min/kg, the half-life was 1.06 h, the Vd was 2.85 L/kg and the bioavailability worked out at 13%. The “dose normalized AUC” value in data set [1] (rat SD male) came out at 33 ng·kg·h/mL/mg.

What is called IC50 is the midpoint of a concentration-inhibition curve. The term clearance denotes the volume of plasma or blood freed of the substance per unit of time. A higher clearance goes with a high capacity for elimination. In general, half-life refers to the time needed for the level to fall by half in the phase considered. Read a low half-life as fast loss. As usually defined, the bioavailability is dose-corrected exposure relative to a reference, in per cent. Read a low bioavailability as poor availability.
